In PMC6522510 (Nature Communications, 2019):
pEC50: −log10 of the molar value. Where two headings read alike, the source gives them in different places.

Legend:
CHRF288-11 [1] = experiment: Secondary dose-response HTS, Cell Titer Glo; assay type: cell-based, human
ML2 = experiment: Secondary dose-response HTS, Cell Titer Glo; assay type: cell-based, human; conditions: secondary high-throughput screen, ML-2; for pEC50: read-out: average effective concentration, ML-2
MOLM-13 [2] = experiment: cells; set-up: species or system AML cell lines (8); Secondary HTS, 10-point dose-response in triplicate, Cell Titer Glo viability, four-parameter fit EC50; conditions: Homo sapiens, MOLM-13, 72 h, read-out: MOLM-13
MV4-11 [3] = experiment: cells; set-up: species or system AML cell lines (8); Secondary HTS, 10-point dose-response in triplicate, Cell Titer Glo viability, four-parameter fit EC50; conditions: Homo sapiens, MV4-11, 72 h, read-out: MV4-11
CMK [4] = experiment: cells; set-up: species or system AML cell lines (8); Secondary HTS, 10-point dose-response in triplicate, Cell Titer Glo viability, four-parameter fit EC50; conditions: Homo sapiens, CMK, 72 h, read-out: CMK
CMS [5] = experiment: cells; set-up: species or system AML cell lines (8); Secondary HTS, 10-point dose-response in triplicate, Cell Titer Glo viability, four-parameter fit EC50; conditions: 72 h, read-out: CMS
M07e = experiment: cells; set-up: species or system AML cell lines (8); Secondary HTS, 10-point dose-response in triplicate, Cell Titer Glo viability, four-parameter fit EC50; conditions: M-07e, 72 h, read-out: M07e
U937 [6] = experiment: cells; set-up: species or system AML cell lines (8); Secondary HTS, 10-point dose-response in triplicate, Cell Titer Glo viability, four-parameter fit EC50; conditions: Homo sapiens, U-937, 72 h, read-out: U937
MOLM-13 [7] = experiment: Secondary dose-response HTS, Cell Titer Glo; assay type: cell-based, human; conditions: MOLM-13
MV4-11 [8] = experiment: Secondary dose-response HTS, Cell Titer Glo; assay type: cell-based, human; conditions: MV4-11
CMK [9] = experiment: Secondary dose-response HTS, Cell Titer Glo; assay type: cell-based, human; conditions: CMK
CMS [10] = experiment: Secondary dose-response HTS, Cell Titer Glo; assay type: cell-based, human
U937 [11] = experiment: Secondary dose-response HTS, Cell Titer Glo; assay type: cell-based, human
CHRF288-11 [12] = experiment: cells; set-up: species or system AML cell lines (8); Secondary HTS, 10-point dose-response in triplicate, Cell Titer Glo viability, four-parameter fit EC50; conditions: 72 h, read-out: CHRF288-11
[13] = Homo sapiens, HTS, secondary high-throughput screen, CHRF288-11, read-out: average effective concentration, CHRF288-11
[14] = Homo sapiens, secondary high-throughput screen, read-out: average effective concentration, MOLM-13
[15] = Homo sapiens, secondary high-throughput screen, read-out: average effective concentration, MV4-11
[16] = Homo sapiens, read-out: average effective concentration, CMK
[17] = secondary high-throughput screen
[18] = secondary high-throughput screen, CMS
[19] = secondary high-throughput screen, U937
[20] = secondary high-throughput screen, read-out: average effective concentration, MOLM-13
[21] = secondary high-throughput screen, CHRF288-11, read-out: average effective concentration, CHRF288-11
[22] = secondary high-throughput screen, CMS, read-out: average effective concentration, CMS
[23] = secondary high-throughput screen, U937, read-out: average effective concentration, U937

pEC50 (MV4-11 [3]) | pEC50 (U937 [6]) | pEC50 (MOLM-13 [7]; [14]) | Molecule | pEC50 (CHRF288-11 [1]; [13]) | pEC50 (ML2; Homo sapiens) | pEC50 (CMK [4]) | pEC50 (CMS [5]) | pEC50 (M07e) | pEC50 (CHRF288-11 [12]) | other results
< 5.00 | < 5.00 |  | O=C(c1cc(Cc2n[nH]c(=O)c3ccccc23)ccc1F)N1CCN(C(=O)C2CC2)CC1 [OLAPARIB] | < 5.00 | < 5.00 | < 5.00 | < 5.00 | < 5.00 |  | pEC50 (MOLM-13 [2]): < 5.00
 |  | 7.96 | Cn1cc(CNCC2CCN(c3ncc(C(=O)NO)cn3)CC2)c2ccccc21 [Quisinostat, reference compound] | 8.05 |  |  |  |  |  | pEC50 (MOLM-13 [7]; Homo sapiens, secondary HTS, 72 h, average of triplicate, read-out: EC50 MOLM-13): 8.00; pEC50 (MV4-11 [8]; Homo sapiens, secondary HTS, 72 h, average of triplicate, read-out: EC50 MV4-11): 8.00; pEC50 (MV4-11 [8]; [15]): 8.22; pEC50 (CHRF288-11 [1]; Homo sapiens, secondary HTS, 72 h, average of triplicate, read-out: EC50 CHRF288-11): 8.00; pEC50 (CMK [9]; Homo sapiens, 72 h, read-out: EC50 CMK): 7.70; pEC50 (CMK [9]; [16]): 7.74; pEC50 (CMS [10]; Homo sapiens, HTS, 72 h, read-out: EC50 CMS): 9.00; pEC50 (U937 [11]; Homo sapiens, U-937, secondary HTS, 72 h, average of triplicate, read-out: EC50 U937): 8.00
 | < 5.00 | 7.17 | Cc1nc2ccc(CN(C)c3ccc(C(=O)N[C@@H](CCC(=O)O)C(=O)O)s3)cc2c(=O)[nH]1 [RALTITREXED] | 7.02 | 7.00 | < 5.00 | < 5.00 | < 5.00 |  | pEC50 (MV4-11 [8]; [15]): 7.57
 | < 5.00 |  | CCOc1cc(C(C)(C)C)ccc1C1=N[C@@](C)(c2ccc(Cl)cc2)[C@@](C)(c2ccc(Cl)cc2)N1C(=O)N1CCN(CCCS(C)(=O)=O)CC1 [RG7112] |  |  | < 5.00 | < 5.00 |  | < 5.00 | 
< 5.00 | < 5.00 | < 5.00 | O=C(O)c1ccc2c(c1)nc(Nc1cccc(Cl)c1)c1ccncc12 [SILMITASERTIB] |  | < 5.00 | < 5.00 | < 5.00 | < 5.00 | < 5.00 | 
 |  |  | O=C(NCC1(c2nc(-c3ccccc3)cs2)CCOCC1)c1cccc(-c2noc(C(F)(F)F)n2)c1 [TMP269] |  |  |  |  |  |  | average effective concentration, MOLM-13 (MOLM-13 [7]; [17]): Inactive; average effective concentration, MV4-11 (MV4-11 [8]; [17]): Inactive; average effective concentration, CHRF288-11 (CHRF288-11 [1]; secondary high-throughput screen, CHRF288-11): Inactive; average effective concentration, CMK (CMK [9]; [17]): Inactive; average effective concentration, CMS (CMS [10]; [18]): Inactive; average effective concentration, ML-2 (ML2): Inactive; average effective concentration, U937 (U937 [11]; [19]): Inactive
< 5.00 | < 5.00 |  | Oc1nc(-c2ccc(C(F)(F)F)cc2)nc2c1CSCC2 [XAV939] |  | 5.55 | < 5.00 | < 5.00 | < 5.00 | < 5.00 | pEC50 (MOLM-13 [2]): < 5.00
< 5.00 |  | 5.00 | C/C1=C\CC(C)(C)/C=C/C(=O)/C(C)=C/CC1 [ZERUMBONE] | 5.07 | 5.16 |  |  | < 5.00 |  | pEC50 (CMK [9]; [16]): 5.14; pEC50 (CMS [10]; Homo sapiens, HTS, read-out: average effective concentration, CMS): 5.14; pEC50 (U937 [11]; Homo sapiens, U-937, secondary high-throughput screen, U937, read-out: average effective concentration, U937): 5.00
 |  |  | BLEOMYCIN |  |  |  |  |  |  | pEC50 (MOLM-13 [7]; [20]): 5.16; average effective concentration, MV4-11 (MV4-11 [8]; [17]): Inactive; average effective concentration, CMK (CMK [9]; [17]): Inactive; average effective concentration, CMS (CMS [10]; [18]): Inactive; average effective concentration, U937 (U937 [11]; [19]): Inactive
 |  |  | I-BET151 |  |  |  |  |  |  | pEC50 (MOLM-13 [7]; [20]): 6.19; average effective concentration, MV4-11 (MV4-11 [8]; [17]): Inactive; pEC50 (CHRF288-11 [1]; [21]): 5.29; average effective concentration, CMK (CMK [9]; [17]): Inactive; pEC50 (CMS [10]; [22]): 5.68; pEC50 (ML2): 5.57; pEC50 (U937 [11]; [23]): 5.49
 |  |  | MITHRAMYCIN A |  |  |  |  |  |  | pEC50 (MOLM-13 [7]; [20]): 6.85; pEC50 (MV4-11 [8]; secondary high-throughput screen, read-out: average effective concentration, MV4-11): 7.28; pEC50 (CHRF288-11 [1]; [21]): 6.80; pEC50 (CMK [9]; secondary high-throughput screen, read-out: average effective concentration, CMK): 6.59; pEC50 (CMS [10]; [22]): 6.74; pEC50 (ML2): 6.64; pEC50 (U937 [11]; [23]): 6.62

Molecule | pEC50 (MV4-11 [3]) | pEC50 (U937 [6]) | pEC50 (MOLM-13 [7]; [14]) | pEC50 (CHRF288-11 [1]; [13]) | pEC50 (ML2; Homo sapiens) | pEC50 (CMK [4]) | pEC50 (CMS [5]) | pEC50 (M07e) | pEC50 (CHRF288-11 [12]) | other results
O=C1c2c(O)ccc(O)c2C(=O)c2c(NCCNCCO)ccc(NCCNCCO)c21 [SJ000285321, MITOXANTHRONE] |  | 7.59 |  |  |  | 7.37 | 7.07 | 7.48 | 7.62 | pEC50 (MOLM-13 [2]): 8.09
